According to patent US6727264B1 (Synaptic Pharmaceutical Corporation, priority 2001, dated 2004):

target: rat MCH-1 (Rattus norvegicus, UniProt P97639); test: Radioligand binding assay at cloned rat MCH1 receptor ([3H] Compound A); set-up: host or cells: Peak rapid 293 (Peakr293) cells, transient calcium phosphate transfection, membranes; settings: cloned rat MCH1 receptor, membranes from Peakr293 cells, 0.08 nM [3H] Compound A; read-out: Ki (nM) rMCH1
Sequence (P97639 whole entry): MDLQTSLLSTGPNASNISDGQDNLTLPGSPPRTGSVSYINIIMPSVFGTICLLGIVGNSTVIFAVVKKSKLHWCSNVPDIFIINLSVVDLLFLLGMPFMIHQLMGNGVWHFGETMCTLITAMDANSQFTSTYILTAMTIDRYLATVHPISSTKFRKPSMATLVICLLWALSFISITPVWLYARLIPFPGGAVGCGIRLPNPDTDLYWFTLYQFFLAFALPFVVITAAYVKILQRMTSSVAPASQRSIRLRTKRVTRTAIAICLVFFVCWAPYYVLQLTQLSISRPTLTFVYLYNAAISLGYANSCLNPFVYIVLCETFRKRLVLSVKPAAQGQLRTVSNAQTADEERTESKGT

| Compound | Ki [nM] |
| --- | --- |
| O=C(Nc1cccc(C2CCN(CC[C@@H](O)c3ccccc3)CC2)c1)C1CC1 [Example 278] | 85.8 |
| CC(C)C(=O)Nc1cccc(C2CCN(CCCC(O)c3ccccc3)CC2)c1 (stereo not drawn) [Example 279] | 74.5 |
| CC(C)C(=O)Nc1cccc(C2CCN(CCCCC(O)c3ccccc3)CC2)c1 (stereo not drawn) [Example 280] | 27.6 |
| CC(C)C(=O)Nc1cccc(C2CCN(CCCCCC(O)c3ccccc3)CC2)c1 (stereo not drawn) [Example 281] | 7.9 |
| CC(C)C(=O)Nc1cccc(C2CCN(CCCCCCC(O)c3ccccc3)CC2)c1 (stereo not drawn) [Example 282] | 23.5 |
| Cc1onc(-c2c(Cl)cccc2Cl)c1C(=O)OC(CCCN1CCC(c2cccc(NC(=O)C(C)C)c2)CC1)c1ccccc1 (stereo not drawn) [Example 284, 4-{4-[3-(ISOBUTYRYLAMINO)PHENYL]-1-PIPERIDINYL}-1-PHENYLBUTYL 3-(2,6-DICHLOROPHENYL)-5-METHYL-4-ISOXAZOLECARBOXYLATE] | 16.3 |
| CC(C)C(=O)Nc1cccc(C2CCN(CCCC(OC(=O)Cc3ccc(F)cc3)c3ccccc3)CC2)c1 (stereo not drawn) [Example 285] | 10.3 |
| CC(C)C(=O)Nc1cccc(C2CCN(CCCOC(=O)Cc3ccc(F)cc3)CC2)c1 [Example 286] | 67.8 |
| Cc1onc(-c2c(F)cccc2Cl)c1C(=O)OCCCN1CCC(c2cccc(NC(=O)C(C)C)c2)CC1 [Example 287, 3-{4-[3-(ISOBUTYRYLAMINO)PHENYL]-1-PIPERIDINYL}PROPYL 3-(2-CHLORO-6-FLUOROPHENYL)-5-METHYL-4-ISOXAZOLECARBOXYLATE] | 34.3 |
| Cc1onc(-c2c(Cl)cccc2Cl)c1C(=O)OCCCN1CCC(c2cccc(NC(=O)C(C)C)c2)CC1 [Example 288, 3-{4-[3-(ISOBUTYRYLAMINO)PHENYL]-1-PIPERIDINYL}PROPYL 3-(2,6-DICHLOROPHENYL)-5-METHYL-4-ISOXAZOLECARBOXYLATE] | 30.2 |
| Cc1onc(-c2ccccc2Cl)c1C(=O)OCCCN1CCC(c2cccc(NC(=O)C(C)C)c2)CC1 [Example 289, 3-{4-[3-(ISOBUTYRYLAMINO)PHENYL]-1-PIPERIDINYL}PROPYL 3-(2-CHLOROPHENYL)-5-METHYL-4-ISOXAZOLECARBOXYLATE] | 31.8 |
| Cc1onc(-c2c(Cl)cccc2Cl)c1C(=O)O[C@@H](CCN1CCC(c2cccc(NC(=O)C(C)C)c2)CC1)c1ccccc1 [Example 290, (1S)-3-{4-[3-(ISOBUTYRYLAMINO)PHENYL]-1-PIPERIDINYL}-1-PHENYLPROPYL 3-(2,6-DICHLOROPHENYL)-5-METHYL-4-ISOXAZOLECARBOXYLATE] | 51.9 |
| Cc1onc(-c2c(F)cccc2Cl)c1C(=O)OCCCCN1CCC(c2cccc(NC(=O)C(C)C)c2)CC1 [Example 291, 4-{4-[3-(ISOBUTYRYLAMINO)PHENYL]-1-PIPERIDINYL}BUTYL 3-(2-CHLORO-6-FLUOROPHENYL)-5-METHYL-4-ISOXAZOLECARBOXYLATE] | 24.3 |
| Cc1onc(-c2ccccc2Cl)c1C(=O)OCCCCN1CCC(c2cccc(NC(=O)C(C)C)c2)CC1 [Example 292, 4-{4-[3-(ISOBUTYRYLAMINO)PHENYL]-1-PIPERIDINYL}BUTYL 3-(2-CHLOROPHENYL)-5-METHYL-4-ISOXAZOLECARBOXYLATE] | 18.4 |
| Cc1onc(-c2ccccc2)c1C(=O)OCCCN1CCC(c2cccc(NC(=O)C(C)C)c2)CC1 [Example 293, 3-{4-[3-(ISOBUTYRYLAMINO)PHENYL]-1-PIPERIDINYL}PROPYL 5-METHYL-3-PHENYL-4-ISOXAZOLECARBOXYLATE] | 39.9 |
| Cc1onc(-c2c(Cl)cccc2Cl)c1C(=O)OCCCCN1CCC(c2cccc(NC(=O)C(C)C)c2)CC1 [Example 294, 4-{4-[3-(ISOBUTYRYLAMINO)PHENYL]-1-PIPERIDINYL}BUTYL 3-(2,6-DICHLOROPHENYL)-5-METHYL-4-ISOXAZOLECARBOXYLATE] | 15.8 |
| Cc1onc(-c2c(F)cccc2Cl)c1C(=O)OC(CCCN1CCC(c2cccc(NC(=O)C(C)C)c2)CC1)c1ccccc1 (stereo not drawn) [Example 295, 4-{4-[3-(ISOBUTYRYLAMINO)PHENYL]-1-PIPERIDINYL}-1-PHENYLBUTYL 3-(2-CHLORO-6-FLUOROPHENYL)-5-METHYL-4-ISOXAZOLECARBOXYLATE] | 8.7 |
| Cc1onc(-c2ccccc2)c1C(=O)OCCCCN1CCC(c2cccc(NC(=O)C(C)C)c2)CC1 [Example 296, 4-{4-[3-(ISOBUTYRYLAMINO)PHENYL]-1-PIPERIDINYL}BUTYL 5-METHYL-3-PHENYL-4-ISOXAZOLECARBOXYLATE] | 20 |

| Compound | Ki [nM] |
| --- | --- |
| Cc1onc(-c2c(Cl)cccc2Cl)c1C(=O)OCCCCCCN1CCC(c2cccc(NC(=O)C(C)C)c2)CC1 [Example 297, 6-{4-[3-(ISOBUTYRYLAMINO)PHENYL]-1-PIPERIDINYL}HEXYL 3-(2,6-DICHLOROPHENYL)-5-METHYL-4-ISOXAZOLECARBOXYLATE] | 11.9 |
| Cc1onc(-c2ccccc2)c1C(=O)OCCCCCCN1CCC(c2cccc(NC(=O)C(C)C)c2)CC1 [Example 298, 6-{4-[3-(ISOBUTYRYLAMINO)PHENYL]-1-PIPERIDINYL}HEXYL 5-METHYL-3-PHENYL-4-ISOXAZOLECARBOXYLATE] | 40.1 |
| CC(C)C(=O)Nc1cccc(C2CCN(CCCCOC(=O)Cc3ccc(F)cc3)CC2)c1 [Example 299] | 37.5 |
| Cc1onc(-c2ccccc2Cl)c1C(=O)OC(CCCN1CCC(c2cccc(NC(=O)C(C)C)c2)CC1)c1ccccc1 (stereo not drawn) [Example 300, 4-{4-[3-(ISOBUTYRYLAMINO)PHENYL]-1-PIPERIDINYL}-1-PHENYLBUTYL 3-(2-CHLOROPHENYL)-5-METHYL-4-ISOXAZOLECARBOXYLATE] | 7.6 |
| CC(C)C(=O)Nc1cccc(C2CCN(CC[C@H](NC(=O)C(c3ccccc3)c3ccccc3)c3ccccc3)CC2)c1 [Example 304] | 4 |
| CC(C)C(=O)Nc1cccc(C2CCN(CC[C@H](NC(=O)c3cccc(Cl)c3)c3ccccc3)CC2)c1 [Example 305] | 177 |
| CC(C)C(=O)Nc1cccc(C2CCN(CC[C@H](NC(=O)c3cc(Cl)cc(Cl)c3)c3ccccc3)CC2)c1 [Example 306] | 168 |
| CCSc1ncccc1C(=O)N[C@@H](CCN1CCC(c2cccc(NC(=O)C(C)C)c2)CC1)c1ccccc1 [Example 307] | 97.4 |
| CC(C)C(=O)Nc1cccc(C2CCN(CC[C@H](NC(=O)c3ccc(-c4ccccc4)cc3)c3ccccc3)CC2)c1 [Example 308] | 402 |
| CC(C)C(=O)Nc1cccc(C2CCN(CC[C@H](NC(=O)c3ccccn3)c3ccccc3)CC2)c1 [Example 309] | 310 |
| COc1ccccc1C(=O)N[C@@H](CCN1CCC(c2cccc(NC(=O)C(C)C)c2)CC1)c1ccccc1 [Example 310] | 152 |
| CC(C)C(=O)Nc1cccc(C2CCN(CC[C@H](NC(=O)c3cccc4ccccc34)c3ccccc3)CC2)c1 [Example 311] | 43 |
| CC(C)C(=O)Nc1cccc(C2CCN(CC[C@H](NC(=O)c3ccc(F)cc3F)c3ccccc3)CC2)c1 [Example 312] | 61.5 |
| Cc1onc(-c2c(F)cccc2Cl)c1C(=O)N[C@@H](CCN1CCC(c2cccc(NC(=O)C(C)C)c2)CC1)c1ccccc1 [Example 313] | 249 |
| CC(C)C(=O)Nc1cccc(C2CCN(CC[C@H](NC(=O)c3sccc3Cl)c3ccccc3)CC2)c1 [Example 314] | 7.6 |
| CC(C)C(=O)Nc1cccc(C2CCN(CC[C@H](NC(=O)c3cccnc3Oc3ccccc3)c3ccccc3)CC2)c1 [Example 315] | 11.4 |
| CCCc1nn(-c2ccc(Cl)cc2)cc1C(=O)N[C@@H](CCN1CCC(c2cccc(NC(=O)C(C)C)c2)CC1)c1ccccc1 [Example 316] | 8.3 |
| Cc1nn(C)c2ncc(C(=O)N[C@@H](CCN3CCC(c4cccc(NC(=O)C(C)C)c4)CC3)c3ccccc3)c(Cl)c12 [Example 317] | 110 |
